Test results: patent US10231954B2, “Neurodegenerative therapies” (LYTIX BIOPHARMA AS, priority 2014, dated 2019)

Key:
Type in all cases: biochemical
Conditions in all cases: 100 micromolar inhibitor concentration; 100 is no change
MKK1 = MKK1 (Homo sapiens, UniProt Q02750); test: Kinase profiling MKK1
Description: (§1) Any value less that 25 is considered to be highly significant inhibition.

MKK2 = MKK2 (Homo sapiens, UniProt P36507); test: Kinase profiling MKK2
Description: as §1

p38b MAPK = p38b MAPK (Homo sapiens, UniProt Q15759); test: Kinase profiling p38b MAPK
Sequence of p38b MAPK (Q15759 whole entry): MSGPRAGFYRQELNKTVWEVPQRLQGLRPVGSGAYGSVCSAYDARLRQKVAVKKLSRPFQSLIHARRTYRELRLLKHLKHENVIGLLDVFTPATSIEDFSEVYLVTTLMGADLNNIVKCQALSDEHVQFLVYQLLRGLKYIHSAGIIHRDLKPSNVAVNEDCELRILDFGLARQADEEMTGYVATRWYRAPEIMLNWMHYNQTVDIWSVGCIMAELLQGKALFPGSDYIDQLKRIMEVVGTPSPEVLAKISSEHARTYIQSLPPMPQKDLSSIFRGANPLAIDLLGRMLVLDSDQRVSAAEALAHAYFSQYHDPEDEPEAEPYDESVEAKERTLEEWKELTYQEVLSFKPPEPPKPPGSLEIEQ
Description: as §1

p38g MAPK = target: T1, p38g MAPK (Homo sapiens, UniProt P53778); test: Kinase profiling p38g MAPK
T1 sequence (P53778 1-367): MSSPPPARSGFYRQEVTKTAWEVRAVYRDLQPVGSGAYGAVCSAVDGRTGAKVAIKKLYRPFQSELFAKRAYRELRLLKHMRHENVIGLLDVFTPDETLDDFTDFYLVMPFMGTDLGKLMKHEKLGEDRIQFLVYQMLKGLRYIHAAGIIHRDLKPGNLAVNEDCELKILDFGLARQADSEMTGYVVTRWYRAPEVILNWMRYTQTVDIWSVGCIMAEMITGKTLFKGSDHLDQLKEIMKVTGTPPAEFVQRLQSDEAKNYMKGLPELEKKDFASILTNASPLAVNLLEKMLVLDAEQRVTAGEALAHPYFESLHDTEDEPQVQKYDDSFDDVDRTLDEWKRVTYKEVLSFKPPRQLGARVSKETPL
Description: as §1

PRK2 = PRK2 (Homo sapiens, UniProt Q16513); test: Kinase profiling PRK2
Sequence of PRK2 (Q16513 whole entry, species assumed): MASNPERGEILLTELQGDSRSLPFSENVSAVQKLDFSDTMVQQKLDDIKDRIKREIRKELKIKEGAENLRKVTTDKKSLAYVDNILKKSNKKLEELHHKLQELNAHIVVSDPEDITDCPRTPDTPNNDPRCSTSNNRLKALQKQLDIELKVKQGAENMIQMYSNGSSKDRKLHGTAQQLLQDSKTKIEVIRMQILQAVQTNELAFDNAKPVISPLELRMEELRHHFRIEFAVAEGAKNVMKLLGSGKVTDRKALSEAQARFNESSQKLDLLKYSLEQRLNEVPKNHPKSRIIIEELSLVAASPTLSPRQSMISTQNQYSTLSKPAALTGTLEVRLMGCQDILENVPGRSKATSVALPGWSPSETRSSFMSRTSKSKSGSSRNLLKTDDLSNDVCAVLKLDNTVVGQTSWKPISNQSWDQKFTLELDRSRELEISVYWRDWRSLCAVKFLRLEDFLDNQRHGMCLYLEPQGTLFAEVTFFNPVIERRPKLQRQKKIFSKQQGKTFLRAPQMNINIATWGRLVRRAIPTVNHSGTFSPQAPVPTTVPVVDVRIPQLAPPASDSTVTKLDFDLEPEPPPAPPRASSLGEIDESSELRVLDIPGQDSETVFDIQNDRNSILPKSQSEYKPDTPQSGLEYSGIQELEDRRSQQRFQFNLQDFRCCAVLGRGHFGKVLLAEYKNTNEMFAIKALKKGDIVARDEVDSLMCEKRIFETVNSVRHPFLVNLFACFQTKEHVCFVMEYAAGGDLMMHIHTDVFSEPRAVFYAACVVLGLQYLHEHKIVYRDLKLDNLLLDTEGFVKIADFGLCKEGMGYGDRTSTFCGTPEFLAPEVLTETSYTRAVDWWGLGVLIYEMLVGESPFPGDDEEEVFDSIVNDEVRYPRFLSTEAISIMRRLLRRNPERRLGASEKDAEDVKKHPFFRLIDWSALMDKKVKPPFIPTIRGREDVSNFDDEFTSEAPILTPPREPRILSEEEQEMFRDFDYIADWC
Description: as §1

PKCa = PKCa (Homo sapiens, UniProt P17252); test: Kinase profiling PKCa
Description: as §1

PKCγ = PKCγ (Homo sapiens, UniProt P05129); test: Kinase profiling PKCγ
Description: as §1

PKD1 = target: T2, PKD1 (Homo sapiens, UniProt Q15139); test: Kinase profiling PKD1
T2 sequence (Q15139 1-912): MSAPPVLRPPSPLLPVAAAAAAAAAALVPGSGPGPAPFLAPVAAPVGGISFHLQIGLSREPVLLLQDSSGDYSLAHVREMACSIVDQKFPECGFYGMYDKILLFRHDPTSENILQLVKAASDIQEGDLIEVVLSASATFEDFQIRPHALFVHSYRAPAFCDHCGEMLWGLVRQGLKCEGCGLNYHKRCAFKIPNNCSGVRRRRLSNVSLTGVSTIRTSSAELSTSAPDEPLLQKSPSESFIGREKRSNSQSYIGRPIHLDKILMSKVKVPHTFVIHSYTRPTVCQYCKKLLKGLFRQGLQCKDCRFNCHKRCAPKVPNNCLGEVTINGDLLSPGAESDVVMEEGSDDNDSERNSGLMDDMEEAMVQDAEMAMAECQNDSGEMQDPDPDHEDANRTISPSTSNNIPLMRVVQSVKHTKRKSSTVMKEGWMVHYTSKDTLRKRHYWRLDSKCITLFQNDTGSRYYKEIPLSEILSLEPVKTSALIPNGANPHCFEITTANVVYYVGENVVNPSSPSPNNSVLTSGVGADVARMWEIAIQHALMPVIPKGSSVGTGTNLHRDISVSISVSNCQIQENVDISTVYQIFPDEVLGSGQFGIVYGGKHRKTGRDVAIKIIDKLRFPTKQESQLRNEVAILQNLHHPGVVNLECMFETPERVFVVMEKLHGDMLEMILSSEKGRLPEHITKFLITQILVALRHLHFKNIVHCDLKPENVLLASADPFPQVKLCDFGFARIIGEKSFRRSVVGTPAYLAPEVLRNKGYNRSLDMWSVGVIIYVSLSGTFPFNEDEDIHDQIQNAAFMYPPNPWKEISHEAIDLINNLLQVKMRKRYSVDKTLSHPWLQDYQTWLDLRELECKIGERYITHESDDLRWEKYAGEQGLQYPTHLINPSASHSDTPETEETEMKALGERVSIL
Description: as §1

Sequence of MKK2 (P36507 whole entry, species assumed): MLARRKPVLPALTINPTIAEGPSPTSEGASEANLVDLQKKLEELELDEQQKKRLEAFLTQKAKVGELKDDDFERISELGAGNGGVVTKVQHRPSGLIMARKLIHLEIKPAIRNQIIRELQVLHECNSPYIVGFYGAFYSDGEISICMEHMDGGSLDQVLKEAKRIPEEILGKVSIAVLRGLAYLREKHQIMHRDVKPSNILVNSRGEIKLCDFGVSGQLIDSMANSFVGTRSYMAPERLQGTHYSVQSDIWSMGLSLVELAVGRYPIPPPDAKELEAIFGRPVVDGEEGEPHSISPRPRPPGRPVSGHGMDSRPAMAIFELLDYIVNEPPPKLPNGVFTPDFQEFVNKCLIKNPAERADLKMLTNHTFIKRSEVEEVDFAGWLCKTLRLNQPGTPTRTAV
Sequence of MKK1 (Q02750 whole entry, species assumed): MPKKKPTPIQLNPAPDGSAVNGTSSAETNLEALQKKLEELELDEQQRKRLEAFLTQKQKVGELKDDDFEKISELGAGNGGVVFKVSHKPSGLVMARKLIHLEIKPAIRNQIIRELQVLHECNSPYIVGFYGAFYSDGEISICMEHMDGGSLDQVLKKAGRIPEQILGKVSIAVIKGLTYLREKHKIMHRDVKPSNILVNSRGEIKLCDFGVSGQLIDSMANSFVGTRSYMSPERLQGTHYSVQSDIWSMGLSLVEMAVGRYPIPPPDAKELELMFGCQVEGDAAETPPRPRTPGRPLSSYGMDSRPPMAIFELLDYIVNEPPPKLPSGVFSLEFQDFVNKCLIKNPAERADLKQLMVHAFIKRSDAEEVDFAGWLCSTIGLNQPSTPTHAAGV

Row | SMILES | residual kinase activity, MKK1 (MKK1) | residual kinase activity, MKK2 (MKK2) | residual kinase activity, p38b MAPK (p38b MAPK) | residual kinase activity, p38g MAPK (p38g MAPK) | residual kinase activity, PRK2 (PRK2) | residual kinase activity, PKCa (PKCa) | residual kinase activity, PKCγ (PKCγ) | residual kinase activity, PKD1 (PKD1)
1 | COc1ccc2sc(NC(=O)c3cccc(NC(C)=O)c3)nc2c1 [MS:LY-2-85] | 83 | 80 | 92 | 80 | 66 | 63 | 80 | 49
2 | CC(=O)Nc1ccccc1C(=O)Nc1nc2ccc(O)cc2s1 [Compound 08-39] | 106 | 78 | 96 | 90 | 42 | 43 | 44 | 32
3 | COc1ccc2sc(NC(=O)c3ccc(NC(C)=O)cc3)nc2c1 [MS:LY-2-77] | 95 | 95 | 110 | 121 | 92 | 97 | 94 | 114
4 | CC(=O)Nc1cccc(C(=O)Nc2nc3ccc(O)cc3s2)c1 [Compound 03-58] | 52 | 86 | 75 | 64 | 36 | 96 | 86 | 54
